The values below are quoted from earlier work in patent US12458589B2, “Implantable polymer depots for the controlled release of therapeutic agents” (Foundry Therapeutics, Inc., priority 2018, dated 2025).

Assay in series [1]: not given
This is another data set of the same source.

Where two headings read alike, the source gives them in different places.

With `CCCCN1CCCCC1C(=O)Nc1c(C)cccc1C` (centres unmarked) [bupivacaine], the “generally regarded as safe plasma level” value is listed as 1,000 ng/mL. Further, in series [1], the “generally regarded as safe plasma level” value was 1,000 ng/mL.
